From patent US20090286884A1, “Hops Beta-Acid Anti-Diabetic Composition” (priority 2004, published 2009)

Test system: normal human muscle myoblasts (HSMM)
Experiment: 3H-deoxyglucose uptake into skeletal muscle cells
Type: cell-based
Details: after 24 hrs incubation in the presence of various hops extracts
Experimental: All skeletal muscle cell strains used are skeletal muscle myoblast cells (purchased from Clonetics) with negative for HIV-I, hepatitis-B & C, mycoplasma, bacteria, yeast and fungi. This Skeletal Muscle Myoblast Cell System contains normal human muscle myoblasts (HSMM). The cell and media System can quickly generate HSMM cultures for the study of cellular development and differentiation, insulin uptake or resistance, or tissue repair. The Skeletal muscle cells were cultured on Cytostar 96-well cultured plate. Cells were labeled with 3H-deoxyglucose (50 μCi/ml, 4 μM) in the presence of 8 mM glucose. Radioactivity was counted on a Microbeta scintillation counter. In beta-acid treated cells (mixture of 65:25:10 of co-Lupulone: lupulone: ad-lupulone, Beta Tec, Washington, D.C.), kinetics of labeled deoxyglucose uptake was directly measured without washing. In order to avoid color quenching of quercetin treated cells, cells were washed with Hanks buffer and then the radioactivity was measured at end-point (18 hr). Error bars show SD (n=3).

## COc1cc(O)c(CC=C(C)C)c(O)c1C(=O)/C=C/c1ccc(O)cc1 [xanthohumol]
  glucose uptake into muscle skeletal cells, enhancing effect: no enhancing effect
